Experimental data taken from US20220235064A1 (WELLMARKER BIO CO., LTD., priority 2019, published 2022).
Counter-ions that a name gives are not always drawn.

Legend:
[1] = molecular target: T1, RON tyrosine kinase (Homo sapiens, UniProt Q04912); experiment: Enzyme inhibitory activity against RON tyrosine kinase (TR-FRET); format: biochemical; details: RON (Carna Bioscience)
T1 construct: purchased Carna Bioscience
Summary of the method: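 Recombinant RON was preincubated with compound for 15 min at RT in 50 mM HEPES pH 7.5, 10 mM MgCl2, 1 mM EGTA, 2 mM DTT, 0.01% Tween-20. Enzyme (0.4 nM), ATP (60 μM) and tyrosine peptide (400 nM) were prepared at 2×, 4× and 4× final. After 60 min at RT, EDTA/Eu-anti-phosphotyrosine stop; IC50 from 665 nm TR-FRET emission.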

[2] = system: cancer cell line KM12C, in which RON is activated; experiment: Cell growth inhibitory ability in RON-activated cancer cell line (MTS); format: cell-based; details: Homo sapiens, 48 hours, absorbance 490 nm
Protocol: Experimental Example 2: Identification of Cell Growth Inhibitory Ability of Example Compounds in RON-Activated Cancer Cell Line
The cancer cell line KM12C (80015, KCLB, MEM+1K° FBS), in which RON is activated, was treated with each of the example compounds at a concentration of 10 μM, and then reaction was allowed to proceed for 48 hours. 24 hours after completion of the reaction, 20 μl of MTS solution (CellTiter 96 Aqueous One Solution Cell Proliferation Assay, product number: G3581, Promega) was added to each well, and then incubation was performed at a temperature of 37° C. in 50 CO2 incubator for 4 hours. Then, an IC50 value of the compound was derived by measuring its absorbance value at a wavelength of 490 nm using a Victor X5 plate reader. Here, as a positive control, N-(4-(2-amino-3-chloropyridin-4-yloxy)-3-fluorophenyl)-4-ethoxy-1-(4-fluorophenyl)-2-oxo-1,2-dihydropyridine-3-carboxamide, which is the compound of Example 1 in WO 2008/058229 A1, was used.

[3] = system: cancer cell line KM12C, in which RON is activated; experiment: Cell-killing efficacy in RON-activated cancer cell line (trypan blue); format: cell-based; details: Homo sapiens, 48 hours, trypan blue, n=2, read-out: Cell death (%) Cancer cell line KM12C
Protocol: Experimental Example 3: Measurement of Cell-Killing Efficacy of Example Compounds in RON-Activated Cancer Cell Line
The cancer cell line KM12C (80015, KCLB, MEM+10% FBS), in which RON is activated, was dispensed into each 60 mm^2 dish at 1×10^5 cells. After 24 hours, the dish was treated with each of the example compounds at a concentration of 1 μM or 5 μM while performing medium exchange, and then reaction was allowed to proceed for 48 hours. After 48 hours, centrifugation was performed for 4 minutes at 1,500 rpm to collect cells and cell fluid. Thereafter, living cells and dead cells were quantified (n=2) using a trypan blue solution (15250-061, Gibco), and statistical analysis was performed using Excel-T-test. Here, as a negative control, only a solvent (0.100 DMSO) was used; and as a positive control, N-(4-(2-amino-3-chloropyridin-4-yloxy)-3-fluorophenyl)-4-ethoxy-1-(4-fluorophenyl)-2-oxo-1,2-dihydropyridine-3-carboxamide, which is the compound of Example 1 in WO 2008/058229 A1, was used.

T1 sequence (Q04912 25-1400): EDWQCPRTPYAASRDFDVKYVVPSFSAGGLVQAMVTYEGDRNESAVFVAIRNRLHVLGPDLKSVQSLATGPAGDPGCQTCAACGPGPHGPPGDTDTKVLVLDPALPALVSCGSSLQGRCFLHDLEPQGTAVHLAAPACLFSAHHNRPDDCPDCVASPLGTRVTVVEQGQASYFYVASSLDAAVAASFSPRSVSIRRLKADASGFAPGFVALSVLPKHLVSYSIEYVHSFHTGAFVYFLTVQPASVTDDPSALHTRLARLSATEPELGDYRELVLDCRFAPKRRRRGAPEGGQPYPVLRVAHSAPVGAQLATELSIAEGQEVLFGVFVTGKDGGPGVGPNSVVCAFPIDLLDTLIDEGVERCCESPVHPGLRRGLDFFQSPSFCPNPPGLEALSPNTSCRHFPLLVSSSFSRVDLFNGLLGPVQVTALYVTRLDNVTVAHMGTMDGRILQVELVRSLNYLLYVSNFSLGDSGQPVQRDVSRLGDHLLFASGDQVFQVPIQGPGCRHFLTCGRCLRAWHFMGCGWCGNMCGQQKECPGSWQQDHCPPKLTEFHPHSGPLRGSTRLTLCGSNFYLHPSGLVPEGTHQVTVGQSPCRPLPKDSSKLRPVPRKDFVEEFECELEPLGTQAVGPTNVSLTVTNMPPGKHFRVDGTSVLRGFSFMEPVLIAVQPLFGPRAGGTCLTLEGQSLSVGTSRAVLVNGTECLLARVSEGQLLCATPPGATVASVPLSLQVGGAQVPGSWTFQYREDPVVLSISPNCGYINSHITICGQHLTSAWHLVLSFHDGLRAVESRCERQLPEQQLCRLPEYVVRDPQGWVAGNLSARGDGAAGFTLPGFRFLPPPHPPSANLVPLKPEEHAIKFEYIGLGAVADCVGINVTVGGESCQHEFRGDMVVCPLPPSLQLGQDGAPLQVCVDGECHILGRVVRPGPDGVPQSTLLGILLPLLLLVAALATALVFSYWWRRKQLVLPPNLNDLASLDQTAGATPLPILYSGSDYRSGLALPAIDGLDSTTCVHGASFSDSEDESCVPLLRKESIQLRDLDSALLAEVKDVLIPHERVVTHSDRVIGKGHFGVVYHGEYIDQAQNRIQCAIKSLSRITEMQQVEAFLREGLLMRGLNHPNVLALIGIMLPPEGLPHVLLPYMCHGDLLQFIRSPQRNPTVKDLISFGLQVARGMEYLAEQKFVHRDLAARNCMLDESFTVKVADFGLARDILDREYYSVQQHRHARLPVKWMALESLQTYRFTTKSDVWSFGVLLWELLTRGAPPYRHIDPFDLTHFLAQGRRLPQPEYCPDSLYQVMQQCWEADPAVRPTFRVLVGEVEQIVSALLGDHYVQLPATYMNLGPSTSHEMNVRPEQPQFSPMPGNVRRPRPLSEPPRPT

`O=C(Nc1ccc(Oc2ccnc3cc(-c4ccccn4)sc23)c(F)c1)c1c2c(cn(-c3ccc(F)cc3)c1=O)CCO2` [Example 3, N-(3-Fluoro-4-((2-(pyridin-2-yl)thieno[3,2-b]pyridin-7-yl)oxy)phenyl)-5-(4-fluorophenyl)-6-oxo-2,3,5,6-tetrahydrofuro[3,2-c]pyridine-7-carboxamide] was tested. Which IC50 [1] did it give?
Its IC50 is 2.39 nM.

And the IC50 [2]?
The IC50 was 3 nM.

What about the cytotoxicity at 1 µM [3] of the same molecule?
Its cytotoxicity at 1 µM is 24.6%.

And the cytotoxicity at 5 µM [3]?
The cytotoxicity at 5 µM was 34%.

What does the source list for `O=C(Nc1ccc(Oc2ccnc3cc(-c4ccc(CN5CCOCC5)cn4)sc23)c(F)c1)c1c2c(cn(-c3ccc(F)cc3)c1=O)CCO2` [Example 5, N-(3-Fluoro-4-((2-(5-(morpholinomethyl)pyridin-2-yl)thieno[3,2-b]pyridin-7-yl)oxy)phenyl)-5-(4-fluorophenyl)-6-oxo-2,3,5,6-tetrahydrofuro[3,2-c]pyridine-7-carboxamide hydrochloride]?
IC50 [1]: 5.87 nM; IC50 [2]: 4 nM; cytotoxicity at 1 µM [3]: 21.2%; cytotoxicity at 5 µM [3]: 25.9%

How did the IC50 [1] turn out when `COc1cc2c(Oc3ccc(NC(=O)c4c5c(cn(-c6ccc(F)cc6)c4=O)CCC5)cc3F)ccnc2cc1OCCCN1CCOCC1` [Example 77, N-(3-Fluoro-4-((6-methoxy-7-(3-morpholinopropoxy)quinolin-4-yl)oxy)phenyl)-2-(4-fluorophenyl)-3-oxo-3,5,6,7-tetrahydro-2H-cyclopenta[c]pyridine-4-carboxamide] was run?
The IC50 was 9.32 nM.

What about the IC50 [2] of the same molecule?
Its IC50 is 10 nM.

`O=C(Nc1ccc(Oc2ccnc3cc(OCCN4CCOCC4)c(Cl)cc23)c(F)c1)c1c2c(cn(-c3ccc(F)cc3)c1=O)CCO2` [Example 171, N-(4-((6-Chloro-7-(2-morpholinoethoxy)quinolin-4-yl)oxy)-3-fluorophenyl)-5-(4-fluorophenyl)-6-oxo-2,3,5,6-tetrahydrofuro[3,2-c]pyridine-7-carboxamide] was tested. Which IC50 [1] did it give?
Its IC50 is 7.13 nM.

What about the IC50 [2] of the same molecule?
Its IC50 is 8 nM.

Which results are given for `CN1CCC(Nc2cc(Oc3ccc(NC(=O)c4c5c(cn(-c6ccc(F)cc6)c4=O)CCO5)cc3F)ccn2)CC1` [Example 63, N-(3-Fluoro-4-((2-((1-methylpiperidin-4-yl)amino)pyridin-4-yl)oxy)phenyl)-5-(4-fluorophenyl)-6-oxo-2,3,5,6-tetrahydrofuro[3,2-c]pyridine-7-carboxamide]?
IC50 [1]: 20.6 nM; IC50 [2]: 2280 nM

What does the source list for `N#Cc1cc2c(Oc3ccc(NC(=O)c4c5c(cn(-c6ccc(F)cc6)c4=O)CCO5)cc3F)ccnc2cc1OCCN1CCOCC1` [Example 173, N-(4-((6-Cyano-7-(2-morpholinoethoxy)quinolin-4-yl)oxy)-3-fluorophenyl)-5-(4-fluorophenyl)-6-oxo-2,3,5,6-tetrahydrofuro[3,2-c]pyridine-7-carboxamide]?
IC50 [1]: 0.58 nM; IC50 [2]: 3 nM

How did the IC50 [1] turn out when `COc1cc2nccc(Oc3ccc(NC(=O)c4c5c(cn(-c6ccc(F)cc6)c4=O)CCO5)cc3F)c2cc1NCCCN1CCOCC1` [Example 186, N-(3-Fluoro-4-((7-methoxy-6-((3-morpholinopropyl)amino)quinolin-4-yl)oxy)phenyl)-5-(4-fluorophenyl)-6-oxo-2,3,5,6-tetrahydrofuro[3,2-c]pyridine-7-carboxamide] was run?
Its IC50 is 7.52 nM.

What about the IC50 [2] of the same molecule?
The IC50 was 3 nM.

How did the IC50 [1] turn out when `COc1cc2nccc(Oc3ccc(NC(=O)c4c5c(cn(-c6ccc(F)cc6)c4=O)CCO5)cc3F)c2cc1NC(=O)CN1CCOCC1` [Example 53, N-(3-Fluoro-4-((7-methoxy-6-(2-morpholinoacetamido)quinolin-4-yl)oxy)phenyl)-5-(4-fluorophenyl)-6-oxo-2,3,5,6-tetrahydrofuro[3,2-c]pyridine-7-carboxamide] was run?
Its IC50 is 1.03 nM.

What about the IC50 [2] of the same molecule?
The IC50 was 3 nM.

What does the source list for `O=C(Nc1ccc(Oc2ccnc3cc(-c4ccccn4)sc23)c(F)c1)c1c2c(cn(-c3ccccc3)c1=O)CCO2` [Example 4]?
IC50 [1]: 0.35 nM; IC50 [2]: 8 nM

Which results are given for `O=C(Nc1ccc(Oc2ccnc3ccc(OCCN4CCOCC4)cc23)c(F)c1)c1c2c(cn(-c3ccc(F)cc3)c1=O)CCO2` [Example 177, N-(3-Fluoro-4-((6-(2-morpholinoethoxy)quinolin-4-yl)oxy)phenyl)-5-(4-fluorophenyl)-6-oxo-2,3,5,6-tetrahydrofuro[3,2-c]pyridine-7-carboxamide]?
IC50 [1]: 0.83 nM; IC50 [2]: 6 nM

Which IC50 [1] does the source give for `CCNC(=O)c1cc2c(Oc3ccc(NC(=O)c4c5c(cn(-c6ccc(F)cc6)c4=O)CCO5)cc3F)ccnc2cc1OC` [Example 51, N-(4-((6-(Ethylcarbamoyl)-7-methoxyquinolin-4-yl)oxy)-3-fluorophenyl)-5-(4-fluorophenyl)-6-oxo-2,3,5,6-tetrahydrofuro[3,2-c]pyridine-7-carboxamide] here?
Its IC50 is 0.55 nM.

And the IC50 [2]?
The IC50 was 2 nM.

Which results are given for `COc1cc2nccc(Oc3ccc(NC(=O)c4c5c(cn(-c6ccc(F)cc6)c4=O)CCO5)cc3F)c2cc1OCCN1CCOCC1` [Example 175, N-(3-Fluoro-4-((7-methoxy-6-(2-morpholinoethoxy)quinolin-4-yl)oxy)phenyl)-5-(4-fluorophenyl)-6-oxo-2,3,5,6-tetrahydrofuro[3,2-c]pyridine-7-carboxamide]?
IC50 [1]: 1.24 nM; IC50 [2]: 2 nM

What does the source list for `O=C(Nc1ccc(Oc2ccnc3ccc(OCCCN4CCOCC4)cc23)c(F)c1)c1c2c(cn(-c3ccc(F)cc3)c1=O)CCO2` [Example 178, N-(3-Fluoro-4-((6-(3-morpholinopropoxy)quinolin-4-yl)oxy)phenyl)-5-(4-fluorophenyl)-6-oxo-2,3,5,6-tetrahydrofuro[3,2-c]pyridine-7-carboxamide]?
IC50 [1]: 0.45 nM; IC50 [2]: 25 nM

With `O=C(Nc1ccc(Oc2ccnc(NCCCN3CCOCC3)c2Cl)c(F)c1)c1c2c(cn(-c3ccc(F)cc3)c1=O)CCO2` [Example 62, N-(4-((3-Chloro-2-((3-morpholinopropyl)amino)pyridin-4-yl)oxy)-3-fluorophenyl)-5-(4-fluorophenyl)-6-oxo-2,3,5,6-tetrahydrofuro[3,2-c]pyridine-7-carboxamide] as the molecule, how does the IC50 [1] read?
The IC50 was 12.3 nM.

What about the IC50 [2] of the same molecule?
Its IC50 is 1670 nM.

What does the source list for `O=C(Nc1ccc(Oc2ncnc3[nH]ncc23)c(F)c1)c1c2c(cn(-c3ccc(F)cc3)c1=O)CCO2` [Example 73, N-(4-((1H-pyrazolo[3,4-d]pyrimidin-4-yl)oxy)-3-fluorophenyl)-5-(4-fluorophenyl)-6-oxo-2,3,5,6-tetrahydrofuro[3,2-c]pyridine-7-carboxamide]?
IC50 [1]: 17.5 nM; IC50 [2]: 8 nM

How did the IC50 [1] turn out when `O=C(Nc1ccc(Oc2ncnc3[nH]ccc23)c(F)c1)c1c2c(cn(-c3ccc(F)cc3)c1=O)CCO2` [Example 71, N-(4-((7H-pyrrolo[2,3-d]pyrimidin-4-yl)oxy)-3-fluorophenyl)-5-(4-fluorophenyl)-6-oxo-2,3,5,6-tetrahydrofuro[3,2-c]pyridine-7-carboxamide] was run?
Its IC50 is 8.24 nM.

And the IC50 [2]?
The IC50 was 11 nM.

With `O=C(Nc1ccc(Oc2ccnc3cc(OCCCN4CCOCC4)c(F)cc23)c(F)c1)c1c2c(cn(-c3ccc(F)cc3)c1=O)CCO2` [Example 168, N-(3-Fluoro-4-((6-fluoro-7-(3-morpholinopropoxy)quinolin-4-yl)oxy)phenyl)-5-(4-fluorophenyl)-6-oxo-2,3,5,6-tetrahydrofuro[3,2-c]pyridine-7-carboxamide] as the molecule, how does the IC50 [1] read?
The IC50 was 0.45 nM.

What about the IC50 [2] of the same molecule?
The IC50 was 25 nM.

With `N#Cc1cc2c(Oc3ccc(NC(=O)c4c5c(cn(-c6ccc(F)cc6)c4=O)CCO5)cc3F)ccnc2cc1OCCCN1CCOCC1` [Example 174, N-(4-((6-Cyano-7-(3-morpholinopropoxy)quinolin-4-yl)oxy)-3-fluorophenyl)-5-(4-fluorophenyl)-6-oxo-2,3,5,6-tetrahydrofuro[3,2-c]pyridine-7-carboxamide] as the molecule, how does the IC50 [1] read?
The IC50 was 1.61 nM.

What about the IC50 [2] of the same molecule?
The IC50 was 4 nM.

With `COc1cc2c(Oc3ccc(NC(=O)c4c5c(cn(-c6ccccc6)c4=O)CCO5)cc3F)ccnc2cc1OCCN1CCOCC1` [Example 79, N-(3-Fluoro-4-((6-methoxy-7-(2-morpholinoethoxy)quinolin-4-yl)oxy)phenyl)-6-oxo-5-phenyl-2,3,5,6-tetrahydrofuro[3,2-c]pyridine-7-carboxamide] as the molecule, how does the IC50 [1] read?
Its IC50 is 0.78 nM.

What about the IC50 [2] of the same molecule?
The IC50 was 1 nM.

For `CNC(=O)c1cc2c(Oc3ccc(NC(=O)c4c5c(cn(-c6ccc(F)cc6)c4=O)CCO5)cc3F)ccnc2cc1OCCN1CCOCC1` [Example 163, N-(3-Fluoro-4-((6-(methylcarbamoyl)-7-(2-morpholinoethoxy)quinolin-4-yl)oxy)phenyl)-5-(4-fluorophenyl)-6-oxo-2,3,5,6-tetrahydrofuro[3,2-c]pyridine-7-carboxamide], which IC50 [1] is on record?
The IC50 was 0.1 nM.

And the IC50 [2]?
Its IC50 is 2 nM.
